According to PubChem BioAssay (NCI):
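These data come from cells grown in 96-well plates and exposed to compound for 48 hours at five concentrations. The concentration for full growth arrest is given as TGI.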

Columns and labels:
Assay in all cases: DTP human tumour cell line panel, 48 h
BT-549 breast = tested on: BT-549 breast
K-562 leukemia = tested on: K-562 leukemia
HL-60(TB) leukemia = tested on: HL-60(TB) leukemia
NCI-H226 lung = tested on: NCI-H226 lung
MDA-N = tested on: MDA-N
COLO 205 colon = tested on: COLO 205 colon
NCI-H460 lung = tested on: NCI-H460 lung
DU-145 prostate = tested on: DU-145 prostate
UO-31 renal = tested on: UO-31 renal
SN12C renal = tested on: SN12C renal
OVCAR-8 ovarian = tested on: OVCAR-8 ovarian

| SMILES | TGI (BT-549 breast) [µM] | TGI (K-562 leukemia) [µM] | TGI (HL-60(TB) leukemia) [µM] | TGI (NCI-H226 lung) [µM] | TGI (MDA-N) [µM] | TGI (COLO 205 colon) [µM] | TGI (NCI-H460 lung) [µM] | TGI (DU-145 prostate) [µM] | TGI (UO-31 renal) [µM] | TGI (SN12C renal) [µM] | TGI (OVCAR-8 ovarian) [µM] |
| --- | --- | --- | --- | --- | --- | --- | --- | --- | --- | --- | --- |
| Cc1ccc(Nc2nc3ccccc3nc2NS(=O)(=O)c2ccc(N)cc2)cc1 | > 100 | > 100 | 80.5 | > 100 | > 100 | > 100 | > 100 | > 100 | 65.5 | > 100 | > 100 |
| COc1cc(N(CCC#N)CCC#N)ccc1/C(N=Nc1cccc([N+](=O)[O-])c1)=N\NC(=O)c1ccc(C)cc1 | > 100 | > 100 | 49.1 | > 100 | > 100 | > 100 | 70.5 | > 100 | > 100 | > 100 | > 100 |
| CSc1ccc(/C=C2\N=C(c3ccccc3)N(NC(=O)c3c(Cl)c(Cl)c(Cl)c(Cl)c3-c3nc4ccccc4[nH]3)C2=O)cc1 | > 100 | 66.4 | 61 | > 100 | > 100 | 95.9 | 28 | > 100 | > 100 | > 100 | > 100 |
| CCc1c(N=[N+]=[N-])c2ccccc2oc1=O | > 100 | > 100 | > 100 | > 100 | > 100 | > 100 | > 100 | > 100 | > 100 | > 100 | > 100 |
| CC(C)C1CC(CO)(CNc2nc(N)nc(Cl)c2C=O)C1 (centres undefined) | 52.2 | 6.15 | 3.92 | 26.3 | 9.31 | 28 | 31.9 | 29.1 | 13 | 28.5 | 8.33 |
| O=C(NNC(=O)c1cc2ccccc2[nH]1)c1cc2ccccc2[nH]1 | > 100 | > 100 | > 100 | > 100 | > 100 | > 100 | > 100 | > 100 | > 100 | > 100 | > 100 |
| O=[N+]([O-])C1=Cc2c(O)ccc(O)c2C2c3ccccc3NC12 (centres undefined) | 25.8 | > 100 | > 21 | > 100 | 39.3 | 33.9 | 33.5 | > 54 | 11.8 | 30.9 | > 42.6 |
| COC(=O)c1nc2n(n1)-c1ccccc1C(=O)N(Cc1ccccc1)C2 | > 100 | > 100 | > 100 | > 100 | > 100 | > 100 | > 100 | > 100 | > 100 | > 100 | > 100 |
| CCOC(=O)c1c2ccccc2n2c(=O)n(-c3ccccc3)nnc12 | > 100 | 47.3 | > 100 | > 100 | > 100 | > 100 | > 100 | > 100 | > 100 | > 100 | > 100 |
| COCc1nc(C#N)c(N)o1 | > 10 | > 10 | > 10 | > 10 | > 10 | > 10 | > 10 | > 10 | > 10 | > 10 | > 10 |
| COc1ccccc1Nc1nc(N)nc(N)c1N | > 100 | > 100 | 85 | > 100 | 32.9 | > 100 | > 100 | > 100 | > 100 | 32.7 | > 100 |
| Cc1c(S(=O)(=O)/N=C(\NO)Nc2ccc(Cl)cc2)sc2ccc(Cl)cc12 | 31.7 | > 100 | 47.3 | 38.1 | 32.9 | 30.9 | 76.8 | 53.7 | 52.5 | 35.5 | 32.2 |
| CN(C)CCCCN1c2ccccc2Sc2ccc(N=[N+]=[N-])cc21 | 24.5 | 4.56 | 4.3 | 17.7 | 3.59 | 3.13 | 16.2 | 18.2 | 19 | 22.2 | 22.1 |
| O=C(c1ccccc1)N1N=C(C(F)(F)F)CC1(O)C(F)(F)F (centres undefined) | > 100 | > 100 | > 100 | > 100 | > 100 | > 100 | > 100 | > 100 | > 100 | > 100 | > 100 |
| COc1cc(CCNC2=CC(=O)c3ncccc3C2=O)ccc1O | 2.99 | 17.7 | > 26.9 | 6.62 | 2.72 | 32.6 | 2.71 | 12.3 | 17.3 | 6.71 | 14.3 |
| CCOC(=O)n1c(=O)nc2c3c(ncn21)Oc1c(c(-c2ccccc2)nn1-c1ccccc1)C3c1ccc(Cl)cc1 (centres undefined) | 2.95 | 2.41 | 2.78 | 2.99 | 3.01 | 2.59 | 3.21 | 3.09 | 2.85 | 3.21 | 3.06 |
| COC(=O)c1c(O)ccc2c1c1c(n2CCc2ccccc2)C(=O)c2ccccc2C1 | 63.1 | > 100 | 65.3 | 40 | > 100 | 32.5 | 48.3 | > 100 | 49.7 | 35.4 | > 100 |
| CC(C)=CCN1c2ccccc2[C@@]2(CC=C(C)C)CCN(C)[C@@H]12 | > 100 | 48.2 | 38.1 | > 100 | > 100 | 26.8 | 30.4 | > 100 | 41.8 | > 100 | 90.2 |
| CN(C)CCC(C#N)(c1ccccc1)c1ccccc1 | > 100 | 22.6 | 65.3 | > 100 | > 100 | > 100 | > 100 | > 100 | > 100 | > 100 | > 100 |
